These are literature values, as cited in patent US10561603B2, “Core-shell structure and topical agent” (SEKISUI CHEMICAL CO., LTD., priority 2015, dated 2020).

Where a name gives a salt, the structure may show the parent alone.

For this data set the following is noted: given with manufacturer and molecular weight of the drug raw material.

For the molecule `C[C@@H](O)[C@@H]1NC(=O)[C@H](CCCCN)NC(=O)[C@@H](Cc2c[nH]c3ccccc23)NC(=O)[C@H](Cc2ccccc2)NC(=O)[C@@H](NC(=O)[C@H](N)Cc2ccccc2)CSSC[C@@H](C(=O)N[C@H](CO)[C@@H](C)O)NC1=O` [octreotide acetate], the water-octanol partition coefficient is 0.1.
Take `CCCc1nc(C)c2c(=O)[nH]c(-c3cc(S(=O)(=O)N4CCN(CC)CC4)ccc3OCC)nn12` [vardenafil hydrochloride trihydrate]: the water-octanol partition coefficient is recorded as 3.2.
